Common to all, as to type: biochemical, bovine
Test [1] deals with T1, PtdIns 4-kinase (Bos taurus, UniProt A6QLN5).
T1 construct: It constitutes the major PtdIns 4-kinase activity of bovine uteri; from tissue; host or cells: bovine uterus (acetone powder, purified over ammonium sulfate, Mono Q, S-Sepharose, Mono Q, Mono P and hydroxylapatite)
Put plainly: Specificity of PtdIns 4-kinase for a lipid substrate. To be noted: for Relative activity with lipid added: lipid 0.25 mg/ml, organic extractable label, background subtracted, PtdIns (soybean) = 100; for phosphorylation of lipid by the purified enzyme: standard assay buffer with the indicated lipid. The procedure:
(§1) PtdIns 4-kinase activity was assayed in 60 μl at 30° C. in 20 mM BisTris-HCl (pH 7.0), 10 mM MgCl2, 1.0% Triton X-100, 0.25 mg/ml phosphatidylinositol, and 150 μM ATP (1.25 μCi[-^32 P]ATP), unless otherwise noted. The reaction was terminated by the addition of 12 μl of cold HCl, 120 μl of cold methanol, 150 μl of chloroform, and 40 μl of H2 O. The extracted samples were centrifuged at 12,000 × g for 1 min. and the aqueous layer removed and discarded. When needed, the organic phase was washed with 40 μl of cold methanol and 40 μl of cold 1.0 N HCl, centrifuged at 12,000 × g, and the aqueous layer was removed. The organic phase was then dried under vacuum in a Savant speed-vac, resuspended in 40 μl of chloroform/methanol (2:1), and chromatographed on potassium oxalate-impregnated Silica Gel 60 thin layer chromatography plates (TLC). The solvent system used consisted of chloroform/methanol/ammonium hydroxide/water (51:39.6:3:8.4). For two-dimensional thin layer chromatography, the preceding solvent system was used for the first dimension, and chloroform/methanol/acetic acid/water (50:39:1:10) was used for the second dimension. Standards were visualized by exposing the TLC plate to iodine vapor. The reaction product, phosphatidylinositol 4-phosphate, was visualized by autoradiography, and the corresponding area of the TLC plate was scraped and quantitated by Cherenkov counting. This assay was linear with respect to both protein concentration and time. For tests utilizing [^3 H]PtdIns, the corresponding areas of the TLC plates were scraped and the silica powder was suspended in a gel of Aquasol/H2 O (4:1) before counting. All assays (except column fractions) were done in duplicate or triplicate.
The specificity of PtdIns 4-kinase for lipid substrates was also examined using standard assay buffer containing […] of the indicated lipid. After extraction the organic phase was washed three times, dried in vacuo, and the organic extractable label was quantitated. Control reactions (no lipid) established background levels which were then subtracted from the experimentally derived values (Table III). […] The sensitivity of the above technique was limited and appeared to show little or no activity with lyso-PtdIns; however, subsequent TLC of these reactions established that the enzyme would phosphorylate lyso-PtdIns about 10% as well as soybean Ptdlns. […] Except for lyso-Ptdlns, the results presented in Table III were confirmed by thin layer chromatography.

Test [2] concerns the target T1, PtdIns 4-kinase. Put plainly: Effect of potential inhibitors on PtdIns 4-kinase activity. To be noted: for effectiveness as inhibitor / Relative activity with potential inhibitor / relative activity at 1000 µM: PtdIns 0.1 mg/ml; for effectiveness as inhibitor: soluble compounds approximately 10-fold above the PtdIns concentration; for inhibition: approximately 5-fold molar excess over PtdIns (0.1 mg/ml); for relative activity at 1000 µM: read-out: Relative activity with potential inhibitor, heading: Relative activity with potential inhibitor. Here is the method: as §1, with “This assay was linear with respect to both protein concentration and time.” left out
Various PtdIns-related compounds were tested as possible inhibitors of this purified PtdIns 4-kinase. A concentration of PtdIns of 0.1 mg/ml was used in these tests to accentuate possible competitive inhibition by potential inhibitors (Table IV).

In test [3] the target is T1, PtdIns 4-kinase. Put plainly: Specificity of PtdIns 4-kinase for a nucleotide phosphoryl donor ([3H]PtdIns as substrate). Conditions: for utilization as phosphoryl donor (words): [3H]PtdIns as substrate; for activity at 150 µM: read-out: Relative activity with nucleotide donor. Here is the method: as §1, with “This assay was linear with respect to both protein concentration and time.” left out

[4] abbreviates: nucleotide donor 150 μM, ATP = 100.

Entries after “also recorded” stand apart in the source; their conditions may differ.

T1 sequence (A6QLN5 1-479): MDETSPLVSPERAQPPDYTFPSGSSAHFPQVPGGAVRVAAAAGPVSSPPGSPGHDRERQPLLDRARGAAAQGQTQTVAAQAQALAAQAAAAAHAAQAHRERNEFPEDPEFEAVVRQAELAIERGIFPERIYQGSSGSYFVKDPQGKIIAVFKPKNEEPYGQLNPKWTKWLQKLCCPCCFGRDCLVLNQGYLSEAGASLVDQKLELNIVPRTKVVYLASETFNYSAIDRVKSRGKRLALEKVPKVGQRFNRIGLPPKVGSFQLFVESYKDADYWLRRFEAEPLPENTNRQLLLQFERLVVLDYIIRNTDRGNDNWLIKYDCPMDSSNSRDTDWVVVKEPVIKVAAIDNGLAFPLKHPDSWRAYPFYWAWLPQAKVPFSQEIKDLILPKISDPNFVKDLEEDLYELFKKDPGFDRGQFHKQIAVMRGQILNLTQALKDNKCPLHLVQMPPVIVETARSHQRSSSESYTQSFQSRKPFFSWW

For the compound `CCCCCCCCCCCCCCCC(=O)OC[C@H](COP(=O)(O)O[C@H]1[C@H](O)[C@@H](O)[C@H](OP(=O)(O)O)[C@@H](OP(=O)(O)O)[C@H]1O)OC(=O)CCCCCCCCCCCCCCC` [PtdIns-4,5-P2, phosphatidylinositol 4,5-diphosphate], the “Relative activity with lipid added” value in test [1] came out at 0%. The “phosphorylation of lipid by the purified enzyme” value (“phosphorylation of lipid” below) in test [1] was “nor would it phosphorylate”. In addition, in test [2], the “effectiveness as inhibitor” value is given as “Neither PtdIns-4-P or PtdIns-4,5-P2 were effective inhibitors”. In addition, the inhibition – broadly, the relative decrease from the control value, in per cent – in test [2] is 59%. The “Relative activity with potential inhibitor” value in test [2] (inhibitor 0.02 mg/ml) came to 109%; in test [2] (inhibitor 0.10 mg/ml), 101%; in test [2] (inhibitor 0.50 mg/ml), 41%.
Take `O=P(O)(O)O[C@H]1[C@H](O)[C@@H](O)[C@H](OP(=O)(O)O)[C@@H](O)[C@H]1O` [Ins-1,4-P2]: the “effectiveness as inhibitor” value in test [2] is listed as “ineffective as inhibitors”. The “Relative activity with potential inhibitor” value in test [2] (inhibitor 1.0 mM) is given as 98%.
On to `OC1C(O)C(O)C2(CO2)C(O)C1O` (stereo not drawn) [Inositol 2,2'-anhydro-2-C-hydroxymethyl], for which, in test [2], the “effectiveness as inhibitor” value is “ineffective as inhibitors”. Besides, the relative activity at 1000 µM in test [2] (inhibitor 1.0 mM) is 118%.
For the compound `Nc1nc2c(ncn2[C@@H]2O[C@H](COP(=O)(O)OP(=O)(O)OP(=O)(O)O)[C@@H](O)[C@H]2O)c(=O)[nH]1` [GTP], the “utilization as phosphoryl donor (words)” value in test [3] is given as “No PtdIns-4-P was observed; also recorded: No PtdIns-4-P 5-kinase activity was present”. Besides, the activity at 150 µM in test [3] (setting [4]) is 5%.
Take `Nc1ncnc2c1ncn2[C@@H]1O[C@H](COP(=O)(O)OP(=O)(O)O)[C@@H](O)[C@H]1O` [ADP]: the “utilization as phosphoryl donor (words)” value in test [3] is listed as “No PtdIns-4-P was observed; also recorded: No PtdIns-4-P 5-kinase activity was present”. Further, in test [3] (setting [4]), the activity at 150 µM was 12%.
With galactocerebrosides (mixed), in test [1], the “Relative activity with lipid added” value stood at 0% and the “phosphorylation of lipid” value is “would not phosphorylate”.
In the case of `O=c1ccn([C@@H]2O[C@H](COP(=O)(O)OP(=O)(O)OP(=O)(O)O)[C@@H](O)[C@H]2O)c(=O)[nH]1` [UTP], in test [3], the “utilization as phosphoryl donor (words)” value is reported as “A small amount of PtdIns-4-P was observed”. For the same compound, the activity at 150 µM in test [3] (setting [4]) turned out to be 18%.
As for `O=P(O)(OCC(O)CO)O[C@@H]1[C@H](O)[C@H](O)[C@@H](O)[C@H](O)[C@H]1O` (stereo partly drawn) [Glycerophospho-D-myo-inositol], the “effectiveness as inhibitor” value in test [2] was “ineffective as inhibitors”. Moreover, the relative activity at 1000 µM in test [2] (inhibitor 1.0 mM) is 86%.
As to `Nc1ccn([C@@H]2O[C@H](COP(=O)(O)OP(=O)(O)OP(=O)(O)O)[C@@H](O)[C@H]2O)c(=O)n1` [CTP], the “utilization as phosphoryl donor (words)” value in test [3] is recorded as “No PtdIns-4-P was observed; also recorded: No PtdIns-4-P 5-kinase activity was present”. Also, the activity at 150 µM in test [3] (setting [4]) amounted to 10%.
With `CCCCC/C=C\C/C=C\C/C=C\C/C=C\CCCC(=O)O[C@@H](CO)COC(=O)CCCCCCCCCCCCCCCCC` [1-Stearoyl-2-arachidonoyl-sn-glycerol], in test [1], the “Relative activity with lipid added” value came to 0% and the “phosphorylation of lipid” value is listed as “lacked diacylglycerol kinase activity”.
The corresponding values for Phosphatidylinositol [PtdIns (soybean)] are 100% and “able to phosphorylate”.
In the case of `O=P(O)(O)OC1[C@H](O)[C@H](O)C(O)[C@H](O)[C@H]1O` (stereo partly drawn) [Ins-1-P], the “effectiveness as inhibitor” value in test [2] was “ineffective as inhibitors”. Besides, the “Relative activity with potential inhibitor” value in test [2] (inhibitor 1.0 mM) stood at 89%.
As to `Nc1ncnc2c1ncn2[C@H]1C[C@H](O)[C@@H](COP(=O)(O)OP(=O)(O)OP(=O)(O)O)O1` [dATP, 2'-deoxy-ATP], the “utilization as phosphoryl donor (words)” value was “utilized” in test [3] (listed as 2'-deoxy-ATP) and “utilized; also recorded: will utilize” in test [3] (listed as 2-deoxy-ATP). Also, the activity at 150 µM in test [3] (setting [4]) was found to be 104%.
As to `Nc1ncnc2c1ncn2[C@H]1CC[C@@H](COP(=O)(O)OP(=O)(O)OP(=O)(O)O)O1` [ddATP, 2,3-Dideoxy-ATP], the results for the “utilization as phosphoryl donor (words)” value in test [3] (listed as 2,3-Dideoxy-ATP) and in test [3] (listed as 2,3-dideoxy-ATP) were “partially effective” and “to a lesser degree will utilize”, respectively. Besides, in test [3] (setting [4]), the activity at 150 µM was 39%.
For the compound `O=c1[nH]cnc2c1ncn2[C@@H]1O[C@H](COP(=O)(O)OP(=O)(O)OP(=O)(O)O)[C@@H](O)[C@H]1O` [ITP], in test [3], the “utilization as phosphoryl donor (words)” value is reported as “No PtdIns-4-P was observed; also recorded: No PtdIns-4-P 5-kinase activity was present”. In addition, in test [3] (setting [4]), the activity at 150 µM came to 11%.
With Phosphatidylinositol [PtdIns (bovine)], in test [1], the “Relative activity with lipid added” value amounted to 110% and the “phosphorylation of lipid” value is on record as “able to phosphorylate”.
“L-α-lysophosphatidylinositol [Lyso-PtdIns]”: the “phosphorylation relative to soybean PtdIns, by subsequent TLC” value in test [1] (TLC of the reactions) is recorded as “about 10%”. The “Relative activity with lipid added” value in test [1] is on record as 0%.
As for “L-α-phosphatidyl-L-serine [Phosphatidylserine]”, in test [1], the “Relative activity with lipid added” value is 1% and the “phosphorylation of lipid” value is “no phosphorylation”.
Turning to “phosphatidylinositol 4-phosphate [PtdIns-4-P]”, in test [1], the “Relative activity with lipid added” value came out at 0% and the “phosphorylation of lipid” value was “lacked detectable PtdIns-4-P 5-kinase activity”. For the same compound, in test [2], the “effectiveness as inhibitor” value is recorded as “Neither PtdIns-4-P or PtdIns-4,5-P2 were effective inhibitors” and the inhibition was found to be 42%. Besides, the “Relative activity with potential inhibitor” value in test [2] (inhibitor 0.02 mg/ml) was 99%. In addition, the “Relative activity with potential inhibitor” value in test [2] (inhibitor 0.10 mg/ml) was determined as 105%. In addition, in test [2] (inhibitor 0.50 mg/ml), the “Relative activity with potential inhibitor” value was determined as 58%.
As to glucocerebrosides, in test [1], the “Relative activity with lipid added” value is given as 0% and the “phosphorylation of lipid” value is listed as “would not phosphorylate”.
As for L-α-phosphatidylethanolamine, in test [1], the “Relative activity with lipid added” value is given as 0% and the “phosphorylation of lipid” value is listed as “no phosphorylation”.
The corresponding values for L-α-phosphatidylcholine are 0% and “no phosphorylation”.
Take `Cc1cn([C@H]2C[C@H](O)[C@@H](COP(=O)(O)OP(=O)(O)OP(=O)(O)O)O2)c(=O)[nH]c1=O` [TTP]: the “Relative activity with nucleotide donor” value in test [3] (setting [4]) turned out to be 3.

For the origin of these results see patent publication US5001064A, “Phosphatidylinositol 4-kinase” (Washington University, priority 1988, dated 1991).
